Measurements published in ChEMBL document CHEMBL4152365, “Discovery of DS-6930, a potent selective PPARγ modulator. Part I: Lead identification” (Bioorg Med Chem, 2018).
Converted amounts (≈) assume the structure as drawn. The source made the active and inactive calls. The calls are words filed in the database; no cut-off is given here.

target: T1, Peroxisome proliferator-activated receptor alpha (Homo sapiens, UniProt Q07869); assay: Agonist activity at recombinant human GAL4-DBD fused PPARalpha LBD expressed in COS7 cells after 24 hrs by luciferase reporter gene assay; format: cell-based; details: not given
T1 sequence (Q07869 whole entry): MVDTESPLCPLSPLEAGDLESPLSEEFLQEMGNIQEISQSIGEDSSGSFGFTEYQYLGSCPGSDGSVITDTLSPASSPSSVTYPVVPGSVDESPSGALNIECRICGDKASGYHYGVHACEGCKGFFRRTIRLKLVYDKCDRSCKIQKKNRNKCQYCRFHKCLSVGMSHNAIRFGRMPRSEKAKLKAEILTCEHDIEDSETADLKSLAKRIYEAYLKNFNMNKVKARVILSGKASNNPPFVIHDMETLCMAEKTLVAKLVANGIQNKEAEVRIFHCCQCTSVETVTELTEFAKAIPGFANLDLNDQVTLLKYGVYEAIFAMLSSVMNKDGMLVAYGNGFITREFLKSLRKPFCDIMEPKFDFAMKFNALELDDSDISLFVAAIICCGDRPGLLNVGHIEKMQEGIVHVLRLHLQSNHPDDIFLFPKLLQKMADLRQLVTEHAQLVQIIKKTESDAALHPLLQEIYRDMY

Row | SMILES | EC50 [nM]
1 | CCOc1cccc(Oc2ccc3nc(COc4cccc(C(=O)O)c4)n(C)c3c2)c1 | > 10000
2 | Cc1cccc(Oc2ccc3nc(COc4cccc(C(=O)O)c4)n(C)c3c2)c1 | > 10000
3 | COc1ccccc1Oc1ccc2nc(COc3cccc(C(=O)O)c3)n(C)c2c1.Cl | > 10000
4 | COc1ccc(Oc2ccc3nc(COc4cccc(C(=O)O)c4)n(C)c3c2)cc1 | > 10000
5 | Cn1c(COc2cccc(C(=O)O)c2)nc2ccc(Oc3cccc(OC(F)(F)F)c3)cc21 | > 10000
6 | Cn1c(COc2cccc(C(=O)O)c2)nc2ccc(Oc3ccc(F)cc3)cc21 | > 10000
7 | Cn1c(COc2cccc(C(=O)O)c2)nc2ccc(Oc3ccc(Cl)cc3)cc21 | > 10000

test system: Mus musculus; assay: Glucose-lowering effect in hyperglycemic KK/Ta mouse assessed as reduction in plasma glucose level at 30 mg/kg/day, po administered through diet for 3 days relative to control; format: functional; set-up: scale not given: the % may be the effect or the level left; details: not given

Row | SMILES | Activity [%]
8 | CCOc1cccc(Oc2ccc3nc(COc4cccc(C(=O)O)c4)n(C)c3c2)c1 | 22
9 | Cc1cccc(Oc2ccc3nc(COc4cccc(C(=O)O)c4)n(C)c3c2)c1 | 56.9
10 | Cn1c(COc2cccc(C(=O)O)c2)nc2ccc(Oc3cccc(OC(F)(F)F)c3)cc21 | 41.9
11 | Cn1c(COc2cccc(C(=O)O)c2)nc2ccc(Oc3ccc(F)cc3)cc21 | 56.7
12 | Cn1c(COc2cccc(C(=O)O)c2)nc2ccc(Oc3ccc(Cl)cc3)cc21 | 34.4

test system: not listed separately; assay: Aqueous thermodynamic solubility of the compound in pH 6.8 solution up to 4 hrs by HPLC-UV analysis; format: physicochemical; details: read-out: Therm_solubility

Row | SMILES | solubility thermodynamic at 4 h [µg/mL]
13 | Cc1cccc(Oc2ccc3nc(COc4cccc(C(=O)O)c4)n(C)c3c2)c1 | 3.8 (≈ 9.78 µM)
14 | COc1ccccc1Oc1ccc2nc(COc3cccc(C(=O)O)c3)n(C)c2c1.Cl | 12
15 | COc1ccc(Oc2ccc3nc(COc4cccc(C(=O)O)c4)n(C)c3c2)cc1 | 9.3 (≈ 23 µM)
16 | Cn1c(COc2cccc(C(=O)O)c2)nc2ccc(Oc3cccc(OC(F)(F)F)c3)cc21 | 0.9 (≈ 1.96 µM)
17 | Cn1c(COc2cccc(C(=O)O)c2)nc2ccc(Oc3ccc(F)cc3)cc21 | 19 (≈ 48.4 µM)
18 | Cn1c(COc2cccc(C(=O)O)c2)nc2ccc(Oc3ccc(Cl)cc3)cc21 | 2 (≈ 4.89 µM)

target: T2, Peroxisome proliferator-activated receptor gamma (Homo sapiens) (UniProt P37231); assay: Agonist activity at recombinant human GAL4-DBD fused PPARgamma LBD expressed in COS7 cells at 10 uM after 24 hrs by luciferase reporter gene assay relative to rosiglitazone; format: cell-based; details: not given
T2 sequence (whole entry): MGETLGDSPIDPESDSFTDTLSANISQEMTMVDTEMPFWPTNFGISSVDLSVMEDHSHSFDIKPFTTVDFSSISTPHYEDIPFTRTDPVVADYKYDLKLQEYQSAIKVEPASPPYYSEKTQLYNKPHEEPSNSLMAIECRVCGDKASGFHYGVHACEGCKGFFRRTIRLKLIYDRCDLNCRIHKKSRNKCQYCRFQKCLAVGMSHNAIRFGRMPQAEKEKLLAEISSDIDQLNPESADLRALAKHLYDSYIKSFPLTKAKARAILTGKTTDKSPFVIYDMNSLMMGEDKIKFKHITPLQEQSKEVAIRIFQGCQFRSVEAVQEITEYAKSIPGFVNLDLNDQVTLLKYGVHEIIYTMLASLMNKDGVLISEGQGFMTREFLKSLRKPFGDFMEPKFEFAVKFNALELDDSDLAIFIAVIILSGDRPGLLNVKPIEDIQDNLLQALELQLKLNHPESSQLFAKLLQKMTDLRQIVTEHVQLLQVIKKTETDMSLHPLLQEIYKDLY

Row | SMILES | Emax [%]
19 | CCOc1cccc(Oc2ccc3nc(COc4cccc(C(=O)O)c4)n(C)c3c2)c1 | 56
20 | Cc1cccc(Oc2ccc3nc(COc4cccc(C(=O)O)c4)n(C)c3c2)c1 | 76
21 | COc1ccccc1Oc1ccc2nc(COc3cccc(C(=O)O)c3)n(C)c2c1.Cl | 60
22 | COc1ccc(Oc2ccc3nc(COc4cccc(C(=O)O)c4)n(C)c3c2)cc1 | 71
23 | Cn1c(COc2cccc(C(=O)O)c2)nc2ccc(Oc3cccc(OC(F)(F)F)c3)cc21 | 69
24 | Cn1c(COc2cccc(C(=O)O)c2)nc2ccc(Oc3ccc(F)cc3)cc21 | 75
25 | Cn1c(COc2cccc(C(=O)O)c2)nc2ccc(Oc3ccc(Cl)cc3)cc21 | 62

target: T3, Peroxisome proliferator-activated receptor delta (Homo sapiens) (UniProt Q03181); assay: Agonist activity at PPARdelta (unknown origin) at 10 uM; details: not given
T3 sequence (whole entry): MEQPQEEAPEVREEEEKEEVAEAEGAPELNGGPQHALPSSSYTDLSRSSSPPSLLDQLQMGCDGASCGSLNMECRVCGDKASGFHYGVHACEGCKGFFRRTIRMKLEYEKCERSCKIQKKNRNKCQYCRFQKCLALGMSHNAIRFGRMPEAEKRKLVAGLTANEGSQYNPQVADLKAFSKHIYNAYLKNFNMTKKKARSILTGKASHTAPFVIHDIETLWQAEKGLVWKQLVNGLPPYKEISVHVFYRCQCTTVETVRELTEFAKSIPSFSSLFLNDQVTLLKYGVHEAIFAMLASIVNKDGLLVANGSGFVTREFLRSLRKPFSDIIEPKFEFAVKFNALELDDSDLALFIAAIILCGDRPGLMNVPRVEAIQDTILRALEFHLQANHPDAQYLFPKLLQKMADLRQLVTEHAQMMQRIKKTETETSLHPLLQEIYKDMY

Row | SMILES | Activity
26 | CCOc1cccc(Oc2ccc3nc(COc4cccc(C(=O)O)c4)n(C)c3c2)c1 | inactive
27 | Cc1cccc(Oc2ccc3nc(COc4cccc(C(=O)O)c4)n(C)c3c2)c1 | inactive
28 | COc1ccccc1Oc1ccc2nc(COc3cccc(C(=O)O)c3)n(C)c2c1.Cl | inactive
29 | COc1ccc(Oc2ccc3nc(COc4cccc(C(=O)O)c4)n(C)c3c2)cc1 | inactive
30 | Cn1c(COc2cccc(C(=O)O)c2)nc2ccc(Oc3cccc(OC(F)(F)F)c3)cc21 | inactive
31 | Cn1c(COc2cccc(C(=O)O)c2)nc2ccc(Oc3ccc(F)cc3)cc21 | inactive
32 | Cn1c(COc2cccc(C(=O)O)c2)nc2ccc(Oc3ccc(Cl)cc3)cc21 | inactive

target: T4, Peroxisome proliferator-activated receptor gamma (Homo sapiens, UniProt P37231); assay: Agonist activity at recombinant human GAL4-DBD fused PPARgamma LBD expressed in COS7 cells after 24 hrs by luciferase reporter gene assay; format: cell-based; details: not given
T4 sequence (P37231 whole entry): T2 sequence (whole entry)

Row | SMILES | EC50 [nM]
33 | CCOc1cccc(Oc2ccc3nc(COc4cccc(C(=O)O)c4)n(C)c3c2)c1 | 40
34 | Cc1cccc(Oc2ccc3nc(COc4cccc(C(=O)O)c4)n(C)c3c2)c1 | 79
35 | COc1ccccc1Oc1ccc2nc(COc3cccc(C(=O)O)c3)n(C)c2c1.Cl | 474
36 | COc1ccc(Oc2ccc3nc(COc4cccc(C(=O)O)c4)n(C)c3c2)cc1 | 307
37 | Cn1c(COc2cccc(C(=O)O)c2)nc2ccc(Oc3cccc(OC(F)(F)F)c3)cc21 | 113
38 | Cn1c(COc2cccc(C(=O)O)c2)nc2ccc(Oc3ccc(F)cc3)cc21 | 122
39 | Cn1c(COc2cccc(C(=O)O)c2)nc2ccc(Oc3ccc(Cl)cc3)cc21 | 126

test system: Mus musculus; assay: Toxicity in hyperglycemic KK/Ta mouse assessed as body weight gain at 30 mg/kg/day, po administered through diet for 3 days relative to control; format: organism-based; details: in vivo, 72 h

Row | SMILES | Activity [%]
40 | CCOc1cccc(Oc2ccc3nc(COc4cccc(C(=O)O)c4)n(C)c3c2)c1 | 3.3
41 | Cc1cccc(Oc2ccc3nc(COc4cccc(C(=O)O)c4)n(C)c3c2)c1 | 3.2
42 | Cn1c(COc2cccc(C(=O)O)c2)nc2ccc(Oc3cccc(OC(F)(F)F)c3)cc21 | 5.3
43 | Cn1c(COc2cccc(C(=O)O)c2)nc2ccc(Oc3ccc(F)cc3)cc21 | 3.4
44 | Cn1c(COc2cccc(C(=O)O)c2)nc2ccc(Oc3ccc(Cl)cc3)cc21 | 4.1

test system: not listed separately; assay: 1-octanol/PBS distribution co-efficient, log D of the compound at […] at pH 7.4 after 30 mins by HPLC-MS/MS analysis; format: physicochemical; details: not given

Row | SMILES | logD at 0.5 h
45 | CCOc1cccc(Oc2ccc3nc(COc4cccc(C(=O)O)c4)n(C)c3c2)c1 | 2.4
46 | Cc1cccc(Oc2ccc3nc(COc4cccc(C(=O)O)c4)n(C)c3c2)c1 | 2.3
47 | COc1ccccc1Oc1ccc2nc(COc3cccc(C(=O)O)c3)n(C)c2c1.Cl | 1.3
48 | COc1ccc(Oc2ccc3nc(COc4cccc(C(=O)O)c4)n(C)c3c2)cc1 | 1.8
49 | Cn1c(COc2cccc(C(=O)O)c2)nc2ccc(Oc3cccc(OC(F)(F)F)c3)cc21 | 3.3
50 | Cn1c(COc2cccc(C(=O)O)c2)nc2ccc(Oc3ccc(F)cc3)cc21 | 2
51 | Cn1c(COc2cccc(C(=O)O)c2)nc2ccc(Oc3ccc(Cl)cc3)cc21 | 2.6

target: T5, Peroxisome proliferator-activated receptor alpha (Homo sapiens) (UniProt Q07869); assay: Agonist activity at recombinant human GAL4-DBD fused PPARalpha LBD expressed in COS7 cells at 10 uM after 24 hrs by luciferase reporter gene assay relative to 2-(4-tert-Butylphenoxy)-3-[4-[2-[(4-pyridin-2-ylbenzoyl)amino]ethoxy]; format: cell-based; details: not given
T5 sequence (whole entry): T1 sequence (Q07869 whole entry)

Row | SMILES | Emax [%]
52 | CCOc1cccc(Oc2ccc3nc(COc4cccc(C(=O)O)c4)n(C)c3c2)c1 | 37
53 | Cc1cccc(Oc2ccc3nc(COc4cccc(C(=O)O)c4)n(C)c3c2)c1 | 19
54 | COc1ccccc1Oc1ccc2nc(COc3cccc(C(=O)O)c3)n(C)c2c1.Cl | 4
55 | COc1ccc(Oc2ccc3nc(COc4cccc(C(=O)O)c4)n(C)c3c2)cc1 | 7
56 | Cn1c(COc2cccc(C(=O)O)c2)nc2ccc(Oc3cccc(OC(F)(F)F)c3)cc21 | 17
57 | Cn1c(COc2cccc(C(=O)O)c2)nc2ccc(Oc3ccc(F)cc3)cc21 | 29
58 | Cn1c(COc2cccc(C(=O)O)c2)nc2ccc(Oc3ccc(Cl)cc3)cc21 | 8

test system: not listed separately; assay: Plasma concentration in hyperglycemic KK/Ta mouse at 30 mg/kg/day, po administered through diet for 3 days measured on day 3 post last dose; format: ADME, organism-based; details: not given

Row | SMILES | concentration at 72 h [ng/mL]
59 | Cc1cccc(Oc2ccc3nc(COc4cccc(C(=O)O)c4)n(C)c3c2)c1 | 90
60 | Cn1c(COc2cccc(C(=O)O)c2)nc2ccc(Oc3cccc(OC(F)(F)F)c3)cc21 | 370
61 | Cn1c(COc2cccc(C(=O)O)c2)nc2ccc(Oc3ccc(F)cc3)cc21 | 320

test system: not listed separately; assay: Metabolic stability in human liver microsomes after 0.5 hrs; format: ADME, microsome; details: read-out: Stability

Row | SMILES | remaining at 0.5 h [%]
62 | Cc1cccc(Oc2ccc3nc(COc4cccc(C(=O)O)c4)n(C)c3c2)c1 | 69
63 | COc1ccccc1Oc1ccc2nc(COc3cccc(C(=O)O)c3)n(C)c2c1.Cl | 74
64 | COc1ccc(Oc2ccc3nc(COc4cccc(C(=O)O)c4)n(C)c3c2)cc1 | 100
65 | Cn1c(COc2cccc(C(=O)O)c2)nc2ccc(Oc3cccc(OC(F)(F)F)c3)cc21 | 98
